Read-outs that look alike come from different tables or passages of the source.
Assays:
K-ras G12D = K-ras G12D (Homo sapiens, UniProt P01116, G12D); assay: G-LISA Ras activation assay, 293H cells transfected with G12D mutant; type: cell-based; conditions: 1 hour treatment
Experimental: (§1) 293H cells were seeded in 6-wells at 0.6×10^6 cells per well and transfected next day with 5 μg of Ras wild-type, or G12C, G12D or G12V mutant DNA plasmid vector using transfection reagent Lipofectamine 3000. Next day cells were treated with 3.125-50 μM of Ras compounds for 1 hour. Wild-type transfected cells were subsequently treated with 100 ng/ml EGF for 2 minutes. Cells were washed once in ice-cold PBS, lysed in complete lysis buffer on ice, and processed by G-LISA according to Cytoskeleton protocol.
In-cell selectivity of the compounds presented herein against a specific K-ras mutant form can also be tested as shown in the following exemplary experiment. 293H cells were seeded in 6-wells and transfected next day with 5 μg of Ras wild-type, or G12C, G12D or G12V mutant DNA plasmid vector. Next day cells were treated with 3.125-50 μM of Ras compounds for 1 hour. Wild-type transfected cells were subsequently treated with 100 ng/ml EGF for 2 minutes. Cells were washed once in ice-cold PBS, lysed in complete lysis buffer on ice, and processed by G-LISA according to Cytoskeleton protocol. FIG. 1 depicts exemplary results.
as §1, with “In still further experiments, the inventors tested selected compounds in a G-LISA assay to compare IC50 values for wild-type and various mutant K-Ras (G12D, G12V) using the following general protocol: 293H” for “293H”

Panc1 (G12D) cells = assay: 72 hr cell viability (CellTiterBlue); type: cell-based; conditions: GI50, 72 hr
Experimental: (§2) Viability assays were performed on exemplary compounds and Table 2 below lists exemplary results for selected compounds tested on wild type (Ishikawa) and various K-ras mutants (Panc1-G12D; Panc10.05-G12D; HCT116-G13D).
(§3) Cells are counted and seeded at 1000 cells/36 ul medium/well into 384-well microplates. Cells are returned to 37° C. CO2 incubator for 18 hr. Drug is made as 200× in DMSO and diluted into medium to 10×. To each well is added 4 ul 10× drug, and plates are returned to the incubator. Final assay DMSO concentration is 0.5%. After 72 hr, 8 ul CellTiterBlue (Promega) is added to each well. After 3 hr, fluorescence (Ex550/Em590) is determined on the Victor Plate Reader (Perkin Elmer). Assay range is determined by DMSO control (100% viability) and 100 uM tamoxifen (0% viability). GI50 values are calculated using Graphpad Prism.

Panc10.05 (G12D) cells = assay: 72 hr cell viability (CellTiterBlue); type: cell-based; conditions: GI50, 72 hr
Experimental: as §2, §3

HCT116 (G13D) cells = assay: 72 hr cell viability (CellTiterBlue); type: cell-based; conditions: GI50, 72 hr
Experimental: as §2, §3

[1] = system: Ishikawa (K-Ras wild-type) cells; assay: 72 hr cell viability (CellTiterBlue); type: cell-based; conditions: GI50, 72 hr
Experimental: as §2, §3

[2] = system: Erk phosphorylation in Panc1 (G12D) cells; assay: In-Cell Western Erk phosphorylation; type: cell-based; conditions: EC50, one hour treatment; read-out: In-Cell Western Erk phosporylation Panc1 (G12D)
Experimental: (§4) In-cell phosphorylation assays for Erk and Akt were performed on various of the compounds and exemplary results are shown in Table 3 below using […] and Panc10.05 cell lines for G12D K-ras mutants.
(§5) Cells are seeded in complete medium into black sided, clear-bottom 384-well microplates at 3000 cells/[…]/well. Plates are returned to 37° C. CO2 incubator for 18 hr. Drug is made as 200× in DMSO and diluted into medium to 10×. To each well is added 4 ul 10× test article or controls, and plates are returned to the incubator. Final assay DMSO concentration is 0.5%. After one hour, cells are fixed in formaldehyde, rinsed & permeabilized with triton X-100, and blocked with BSA/Goat serum blocking solution. Primary phospho-Akt and phospho-ERK antibodies are added and plates are incubated overnight at 4° C. Plates are rinsed with Tween-20 wash buffer and secondary antibody (Goat anti-rabbit, Thermofisher) is added. After 2 hours, plates are rinsed in Tween-20 wash buffer, and then PBS. Plates are imaged on the Celigo (Nexcelom) and cellular fluorescence is quantitated. Full inhibition of phospho-Akt is achieved with 1 uM BEZ235 (Sellekchem), while full inhibition of phospho-ERK is achieved with 1 uM MEK Inhibitor II Calbiochem). EC50 values are calculated using Graphpad Prism.

[3] = system: Erk phosphorylation in Panc10.05 (G12D) cells; assay: In-Cell Western Erk phosphorylation; type: cell-based; conditions: EC50, one hour treatment; read-out: In-Cell Western Erk phosporylation Panc10.05 (G12D)
Experimental: as §4, §5

[4] = system: Akt phosphorylation in Panc1 (G12D) cells; assay: In-Cell Western Akt phosphorylation; type: cell-based; conditions: EC50, one hour treatment; read-out: In-Cell Western Akt phosporylation Panc1 (G12D)
Experimental: as §4, §5

[5] = system: Akt phosphorylation in Panc10.05 (G12D) cells; assay: In-Cell Western Akt phosphorylation; type: cell-based; conditions: EC50, one hour treatment; read-out: In-Cell Western Akt phosporylation Panc10.05 (G12D)
Experimental: as §4, §5

K-ras G12V (GTP) = K-ras G12V (GTP) (Homo sapiens, UniProt P01116, G12V); assay: SPR assay (surface plasmon resonance); type: binding; conditions: 25° C., 8% DMSO
Experimental: Selected compounds were also tested for selective binding to wild type and mutant forms of K-ras in the active and non-active state using surface plasmon resonance, and exemplary results are shown in Table 4.
The running buffer in all surface plasmon resonance experiments was 10 mM HEPES pH 7.4, 150 mM NaCl, 0.1% (v/v) Tween-20, 1 mM MgCl2, 8% DMSO. Experiments were carried out on the SensiQ Pioneer optical biosensor. The flow rate was set at 50 μL/min and the temperature was 25° C. kRAS protein was immobilized to the Nickel-NTA charged surface of the SensiQ HisCap chip (sensiqtech.com) giving a yield of 4000 RU. Small molecules were prepared in 100% DMSO and further diluted to 8% DMSO in running buffer. The small molecules were injected using the Taylor diffusion gradient injection mode (OneStep®, see e.g., Evaluation of Taylor dispersion injections: Determining kinetic/affinity interaction constants and diffusion coefficients in label-free biosensing, John G. Quinn, Analytical Biochemistry (2011)). Buffer blanks were injected for double referencing purposes. Data processing and model fitting were performed using Qdat.

[6] = Table 1, G-LISA, 293H transfected, read-out: IC50 (μM) G12D
[7] = Table 5, IC50, 293H transfected, read-out: G-LISA (G12D)

| Compound | IC50 (K-ras G12D; [6]) [µM] | IC50 (K-ras G12D; [7]) [µM] | Kd (K-ras G12V (GTP)) [µM] | SPR Assay G12V (GTP) Rmax (K-ras G12V (GTP)) | other results |
| --- | --- | --- | --- | --- | --- |
| Cc1nc(Cc2ccccn2)sc1C(=O)Nc1nc(-c2ccc3c(c2)CCC(=O)N3)cs1 [Compound 4893] | – | – | – | – | IC50 (Panc1 (G12D) cells): ≥ 25 µM; IC50 (Panc10.05 (G12D) cells): ≥ 25 µM; IC50 (HCT116 (G13D) cells): ≥ 25 µM; IC50 [1]: ≥ 25 µM; EC50 [2]: > 25 µM; EC50 [3]: > 25 µM; EC50 [4]: > 25 µM; EC50 [5]: > 25 µM |
| CC(=O)N1CCCc2cc(-c3csc(NC(=O)c4sc(C)nc4C)n3)ccc21 [Compound 4686] | 11 | 11 | 11.4 | Rmax = 94.2 ± 0.2 | – |
| Cc1nc(C)c(C(=O)Nc2nc(-c3ccc(NC(=O)c4ccccc4)cc3)cs2)s1 [Compound 4665] | > 25 | > 25 | – | – | – |
| COCc1nc(C)c(C(=O)Nc2nc(-c3ccc4c(c3)CCC(=O)N4)cs2)s1 [Compound 4876] | – | – | – | – | IC50 (Panc1 (G12D) cells): 13 µM; IC50 [1]: 3 µM; EC50 [2]: 9 µM; EC50 [3]: 17 µM; EC50 [4]: 20 µM; EC50 [5]: > 25 µM |
| O=C1CCc2cc(-c3csc(NCc4ccccc4)n3)ccc2N1 [Compound 4824] | > 25 | > 25 | – | – | – |
| Cc1nc(C)c(CNc2nc(-c3ccc4c(c3)CCC(=O)N4)cs2)s1 [Compound 4856] | > 25 | – | – | – | IC50 (Panc1 (G12D) cells): ≥ 25 µM; IC50 (Panc10.05 (G12D) cells): ≥ 25 µM; EC50 [2]: 7 µM; EC50 [3]: 19 µM; EC50 [4]: > 25 µM; EC50 [5]: > 25 µM |

Further lines, with some results ahead:

| IC50 (K-ras G12D; [6]) [µM] | IC50 (K-ras G12D; [7]) [µM] | Kd (K-ras G12V (GTP)) [µM] | SPR Assay G12V (GTP) Rmax (K-ras G12V (GTP)) | Compound | other results |
| --- | --- | --- | --- | --- | --- |
| > 25 | > 25 | – | – | N#Cc1ncc(C(=O)Nc2nc(-c3ccc4c(c3)CCC(=O)N4)cs2)s1 [Compound 4685] | – |
| > 25 | > 25 | – | – | O=C1CCc2cc(-c3csc(Nc4ncccn4)n3)ccc2N1 [Compound 4829] | – |
| > 25 | > 25 | 10.1 | Rmax = 85.3 ± 0.1 | CCc1ncsc1C(=O)Nc1nc(-c2ccc3c(c2)CCC(=O)N3)cs1 [Compound 4747] | – |
| > 25 | > 25 | – | – | O=C1CCc2cc(-c3csc(NC(=O)c4cnc(-c5ccccc5)s4)n3)ccc2N1 [Compound 4684] | – |
| 19 | 19 | 6.6 | Rmax = 72.6 ± 0.1 | Cc1nc(C)c(C(=O)Nc2nc(-c3ccc4c(c3)CCC(=O)N4C)cs2)s1 [Compound 4687] | – |
| > 25 | > 25 | 43 | Rmax = 203 ± 3 | O=C1CCc2cc(-c3csc(NC(=O)c4scnc4C4CC4)n3)ccc2N1 [Compound 4735] | – |

Reference: US10487078B2, “Compositions and methods of targeting mutant K-RAS” (NantBio, Inc., priority 2015, dated 2019)
